Assay results as given in paper PMC9186362, “Design and biological evaluation of substituted 5,7-dihydro-6H-indolo[2,3-c]quinolin-6-one as novel selective Haspin inhibitors” (Journal of Enzyme Inhibition and Medicinal Chemistry, 2022).

Assays:
Test in all cases: LanthaScreen Binding - Eu-anti-GST
[1] = biological target: FGFR3 K650M (Homo sapiens, UniProt P22607, K650M); conditions: read-out: Percentage of inhibition
In short: (§1)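 Compound tested at 1 μM only; no dose–response. Data are % inhibition from a whole-panel kinase screen.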

[2] = biological target: TESK1 (Homo sapiens, UniProt Q15569); conditions: read-out: Percentage of inhibition
In short: as §1

[3] = biological target: ACVR2B (Homo sapiens, UniProt Q13705); conditions: read-out: Percentage of inhibition
In short: as §1

[4] = biological target: T1, BRAF (Homo sapiens, UniProt P15056); conditions: read-out: Percentage of inhibition
T1 construct: purchased Life Technologies (SelectScreen Whole Panel)
In short: as §1

[5] = biological target: T2, KIT D820E (Homo sapiens, UniProt P10721, D820E); conditions: read-out: Percentage of inhibition
T2 construct: purchased Life Technologies (SelectScreen service)
T2 sequence (P10721 26-976 D820E): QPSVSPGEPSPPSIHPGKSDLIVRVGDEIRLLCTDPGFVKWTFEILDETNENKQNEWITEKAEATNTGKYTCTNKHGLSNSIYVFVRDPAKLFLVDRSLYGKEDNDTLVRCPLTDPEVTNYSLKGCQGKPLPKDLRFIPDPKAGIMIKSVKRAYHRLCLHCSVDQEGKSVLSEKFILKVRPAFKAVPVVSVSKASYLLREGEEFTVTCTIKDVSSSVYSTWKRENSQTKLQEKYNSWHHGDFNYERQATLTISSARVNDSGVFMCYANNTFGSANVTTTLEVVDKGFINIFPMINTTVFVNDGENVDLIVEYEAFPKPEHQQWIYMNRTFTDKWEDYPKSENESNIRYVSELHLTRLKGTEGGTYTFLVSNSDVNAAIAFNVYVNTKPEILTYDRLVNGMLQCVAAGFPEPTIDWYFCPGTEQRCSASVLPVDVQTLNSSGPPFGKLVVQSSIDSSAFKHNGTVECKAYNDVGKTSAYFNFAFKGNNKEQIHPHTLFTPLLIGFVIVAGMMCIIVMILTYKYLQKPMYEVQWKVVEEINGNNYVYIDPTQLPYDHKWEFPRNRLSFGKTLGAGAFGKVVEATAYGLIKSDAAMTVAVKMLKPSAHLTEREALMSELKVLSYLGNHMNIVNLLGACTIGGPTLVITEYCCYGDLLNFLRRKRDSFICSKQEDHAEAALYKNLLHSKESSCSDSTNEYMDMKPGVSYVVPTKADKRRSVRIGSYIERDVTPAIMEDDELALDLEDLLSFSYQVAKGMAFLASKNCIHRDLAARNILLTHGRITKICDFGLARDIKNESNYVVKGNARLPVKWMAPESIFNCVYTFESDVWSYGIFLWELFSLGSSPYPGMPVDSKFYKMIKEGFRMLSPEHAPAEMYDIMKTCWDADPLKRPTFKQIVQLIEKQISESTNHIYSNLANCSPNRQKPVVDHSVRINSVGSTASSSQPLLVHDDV
In short: as §1

[6] = biological target: ICK (Homo sapiens, UniProt Q9UPZ9); conditions: read-out: Percentage of inhibition
Chain of ICK (Q9UPZ9 whole entry): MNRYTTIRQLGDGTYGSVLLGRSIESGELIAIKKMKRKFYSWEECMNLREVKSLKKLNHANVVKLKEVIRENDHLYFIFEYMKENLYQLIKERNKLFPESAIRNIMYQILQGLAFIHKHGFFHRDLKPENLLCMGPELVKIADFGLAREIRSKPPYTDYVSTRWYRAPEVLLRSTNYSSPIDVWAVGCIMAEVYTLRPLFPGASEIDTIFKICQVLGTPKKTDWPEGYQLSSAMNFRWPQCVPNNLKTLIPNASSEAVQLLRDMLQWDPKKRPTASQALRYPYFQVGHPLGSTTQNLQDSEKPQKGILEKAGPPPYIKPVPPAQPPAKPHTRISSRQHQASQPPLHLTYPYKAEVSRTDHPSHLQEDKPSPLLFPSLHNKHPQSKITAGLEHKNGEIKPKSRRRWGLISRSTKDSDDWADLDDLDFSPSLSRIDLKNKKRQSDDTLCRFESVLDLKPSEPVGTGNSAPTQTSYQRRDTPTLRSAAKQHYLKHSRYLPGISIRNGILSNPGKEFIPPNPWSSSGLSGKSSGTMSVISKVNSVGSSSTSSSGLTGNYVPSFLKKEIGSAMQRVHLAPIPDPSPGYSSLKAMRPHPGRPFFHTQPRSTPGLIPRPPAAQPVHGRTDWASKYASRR
In short: as §1

[7] = biological target: CDK11 (Inactive) (Homo sapiens, UniProt Q9BWU1); conditions: read-out: Percentage of inhibition
Chain of CDK11 (Inactive) (Q9BWU1 whole entry): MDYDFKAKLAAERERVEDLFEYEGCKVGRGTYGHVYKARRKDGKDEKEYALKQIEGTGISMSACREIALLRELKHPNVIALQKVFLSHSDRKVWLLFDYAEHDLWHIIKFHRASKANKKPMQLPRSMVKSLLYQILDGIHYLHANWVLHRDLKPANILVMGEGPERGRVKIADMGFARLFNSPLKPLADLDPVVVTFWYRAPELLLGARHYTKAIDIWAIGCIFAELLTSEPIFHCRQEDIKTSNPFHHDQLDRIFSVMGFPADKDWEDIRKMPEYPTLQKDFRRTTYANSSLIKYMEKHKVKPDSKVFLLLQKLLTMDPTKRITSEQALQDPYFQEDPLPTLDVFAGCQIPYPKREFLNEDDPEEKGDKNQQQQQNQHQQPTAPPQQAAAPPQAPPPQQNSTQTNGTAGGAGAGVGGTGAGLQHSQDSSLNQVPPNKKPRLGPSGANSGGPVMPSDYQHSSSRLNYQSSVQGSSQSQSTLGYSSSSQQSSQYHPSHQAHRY
In short: as §1

[8] = biological target: T3, EGFR (ErbB1) d747-749 A750P (Homo sapiens, UniProt P00533, A750P/DEL747-749); conditions: read-out: Percentage of inhibition
T3 construct: purchased Life Technologies
In short: as §1

[9] = biological target: T4, TAOK1 (Homo sapiens, UniProt Q7L7X3); conditions: read-out: Percentage of inhibition
T4 construct: purchased Life Technologies
In short: as §1

[10] = biological target: T5, GRK1 (Homo sapiens, UniProt Q15835); conditions: read-out: Percentage of inhibition
T5 construct: purchased Life Technologies (SelectScreen Whole Panel)
In short: as §1

[11] = biological target: T6, BRSK2 (Homo sapiens, UniProt Q8IWQ3); conditions: read-out: Percentage of inhibition
T6 construct: purchased Life Technologies (SelectScreen Whole Panel service)
T6 sequence (Q8IWQ3 whole entry): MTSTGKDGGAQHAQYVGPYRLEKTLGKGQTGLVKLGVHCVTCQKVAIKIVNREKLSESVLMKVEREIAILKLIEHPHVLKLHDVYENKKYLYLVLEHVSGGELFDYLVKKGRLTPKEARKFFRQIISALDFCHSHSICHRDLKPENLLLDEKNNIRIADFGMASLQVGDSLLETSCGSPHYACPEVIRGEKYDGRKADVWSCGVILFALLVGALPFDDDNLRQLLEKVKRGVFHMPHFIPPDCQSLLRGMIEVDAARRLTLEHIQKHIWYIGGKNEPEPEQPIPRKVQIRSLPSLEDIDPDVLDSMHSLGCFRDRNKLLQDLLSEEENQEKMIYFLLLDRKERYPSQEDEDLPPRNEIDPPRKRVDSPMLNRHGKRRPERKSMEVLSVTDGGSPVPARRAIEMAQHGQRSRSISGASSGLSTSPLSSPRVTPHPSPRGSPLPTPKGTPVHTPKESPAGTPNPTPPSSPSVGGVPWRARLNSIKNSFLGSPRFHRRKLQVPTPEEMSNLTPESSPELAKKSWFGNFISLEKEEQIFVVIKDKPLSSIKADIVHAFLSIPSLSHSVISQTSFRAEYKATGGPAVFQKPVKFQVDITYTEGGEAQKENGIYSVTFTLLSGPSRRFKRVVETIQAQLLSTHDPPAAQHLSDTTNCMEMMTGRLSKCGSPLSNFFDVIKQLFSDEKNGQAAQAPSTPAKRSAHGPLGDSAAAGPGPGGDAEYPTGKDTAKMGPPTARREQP
In short: as §1

[12] = test system: FLT3 ITD; conditions: 1 µM
In short: as §1

[13] = biological target: MAP3K10 (MLK2) (Homo sapiens, UniProt Q02779); conditions: read-out: Percentage of inhibition
In short: as §1

[14] = biological target: T7, CDK14 (PFTK1)/cyclin Y (Homo sapiens, UniProt O94921); conditions: read-out: Percentage of inhibition
T7 construct: purchased Life Technologies
In short: as §1

[15] = biological target: T8, ALK F1174L (Homo sapiens, UniProt Q9UM73, F1174L); conditions: read-out: Percentage of inhibition
T8 construct: purchased Life Technologies
In short: as §1

[16] = biological target: T9, MAP3K5 (ASK1) (Homo sapiens, UniProt Q99683); conditions: read-out: Percentage of inhibition
T9 construct: purchased Life Technologies
In short: as §1

[17] = biological target: T10, ACVRL1 (ALK1) (Homo sapiens, UniProt P37023); conditions: read-out: Percentage of inhibition
T10 construct: purchased Life Technologies (SelectScreen service)
In short: as §1

[18] = biological target: T11, DDR2 T654M (Homo sapiens, UniProt Q16832, T654M); conditions: read-out: Percentage of inhibition
T11 construct: purchased Life Technologies (SelectScreen service)
In short: as §1

[19] = biological target: T12, ALK R1275Q (Homo sapiens, UniProt Q9UM73, R1275Q); conditions: read-out: Percentage of inhibition
T12 construct: purchased Life Technologies (SelectScreen service)
In short: as §1

[20] = biological target: T13, NLK (Homo sapiens, UniProt Q9UBE8); conditions: read-out: Percentage of inhibition
T13 construct: purchased Life Technologies (SelectScreen Whole Panel service)
In short: as §1

[21] = biological target: T14, LATS2 (Homo sapiens, UniProt Q9NRM7); conditions: read-out: Percentage of inhibition
T14 construct: purchased Life Technologies (SelectScreen service)
In short: as §1

[22] = biological target: T15, CDC7/DBF4 (Homo sapiens, UniProt O00311); conditions: read-out: Percentage of inhibition
T15 construct: purchased Life Technologies (SelectScreen service)
In short: as §1

[23] = biological target: T16, ULK2 (Homo sapiens, UniProt Q8IYT8); conditions: read-out: Percentage of inhibition
T16 construct: purchased Life Technologies (SelectScreen service)
In short: as §1

[24] = biological target: BMPR1A (ALK3) (Homo sapiens, UniProt P36894); conditions: read-out: Percentage of inhibition
Chain of BMPR1A (ALK3) (P36894 24-532): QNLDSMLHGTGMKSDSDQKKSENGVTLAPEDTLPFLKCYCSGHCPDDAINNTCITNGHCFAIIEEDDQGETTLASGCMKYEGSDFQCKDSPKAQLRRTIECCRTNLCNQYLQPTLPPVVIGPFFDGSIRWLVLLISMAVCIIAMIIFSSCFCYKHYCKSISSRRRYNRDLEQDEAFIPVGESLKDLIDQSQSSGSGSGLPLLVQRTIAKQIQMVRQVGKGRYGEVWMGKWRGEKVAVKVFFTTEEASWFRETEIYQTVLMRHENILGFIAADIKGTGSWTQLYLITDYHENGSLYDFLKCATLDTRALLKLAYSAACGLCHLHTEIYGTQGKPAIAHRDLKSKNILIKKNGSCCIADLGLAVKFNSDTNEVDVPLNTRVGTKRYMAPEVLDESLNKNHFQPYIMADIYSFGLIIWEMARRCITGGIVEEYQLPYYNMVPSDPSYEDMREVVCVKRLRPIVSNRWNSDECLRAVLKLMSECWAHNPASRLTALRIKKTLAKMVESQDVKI
In short: as §1

[25] = biological target: TNIK (Homo sapiens, UniProt Q9UKE5); conditions: read-out: Percentage of inhibition
In short: as §1

[26] = biological target: T17, SIK1 (Homo sapiens, UniProt P57059); conditions: read-out: Percentage of inhibition
T17 construct: purchased Life Technologies (SelectScreen Whole Panel service)
T17 sequence (P57059 whole entry): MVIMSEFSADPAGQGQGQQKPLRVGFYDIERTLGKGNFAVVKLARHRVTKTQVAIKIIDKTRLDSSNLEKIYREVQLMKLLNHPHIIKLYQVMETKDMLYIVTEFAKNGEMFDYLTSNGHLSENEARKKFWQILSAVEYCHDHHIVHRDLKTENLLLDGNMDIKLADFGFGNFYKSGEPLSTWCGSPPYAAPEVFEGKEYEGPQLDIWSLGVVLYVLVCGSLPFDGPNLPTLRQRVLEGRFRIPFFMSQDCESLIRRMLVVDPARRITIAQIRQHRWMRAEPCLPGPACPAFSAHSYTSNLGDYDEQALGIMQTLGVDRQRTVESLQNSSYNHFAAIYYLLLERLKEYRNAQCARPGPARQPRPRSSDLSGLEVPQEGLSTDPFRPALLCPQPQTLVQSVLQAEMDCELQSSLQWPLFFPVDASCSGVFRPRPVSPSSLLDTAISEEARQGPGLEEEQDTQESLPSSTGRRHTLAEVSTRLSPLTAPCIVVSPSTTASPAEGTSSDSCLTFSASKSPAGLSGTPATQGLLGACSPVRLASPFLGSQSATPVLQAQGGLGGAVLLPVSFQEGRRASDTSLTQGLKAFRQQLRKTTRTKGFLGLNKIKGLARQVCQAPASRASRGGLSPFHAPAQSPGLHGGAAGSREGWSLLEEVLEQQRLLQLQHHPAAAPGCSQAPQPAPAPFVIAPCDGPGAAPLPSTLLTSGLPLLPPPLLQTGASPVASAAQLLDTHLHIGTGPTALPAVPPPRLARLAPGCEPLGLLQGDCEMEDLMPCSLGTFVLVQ
In short: as §1

[27] = biological target: T18, KIT D816H (Homo sapiens, UniProt P10721, D816H); conditions: read-out: Percentage of inhibition
T18 construct: purchased Life Technologies (SelectScreen service)
T18 sequence (P10721 26-976 D816H): as the sequence (P10721 26-976 D820E) above, with D791H, E795D counted along it
In short: as §1

[28] = biological target: T19, AAK1 (Homo sapiens, UniProt Q2M2I8); conditions: read-out: Percentage of inhibition
T19 construct: purchased Life Technologies
In short: as §1

[29] = biological target: T20, VRK2 (Homo sapiens, UniProt Q86Y07); conditions: read-out: Percentage of inhibition
T20 construct: purchased Life Technologies (SelectScreen Whole Panel)
In short: as §1

[30] = biological target: TEK (TIE2) Y1108F (Homo sapiens, UniProt Q02763, Y1108F); conditions: read-out: Percentage of inhibition
In short: as §1

[31] = biological target: T21, IRAK3 (Homo sapiens, UniProt Q9Y616); conditions: read-out: Percentage of inhibition
T21 construct: purchased Life Technologies (SelectScreen service)
In short: as §1

[32] = biological target: T22, ALK T1151_L1152insT (Homo sapiens, UniProt Q9UM73, INS1151T); conditions: read-out: Percentage of inhibition
T22 construct: purchased Life Technologies
In short: as §1

[33] = biological target: DMPK (Homo sapiens, UniProt Q09013); conditions: read-out: Percentage of inhibition
In short: as §1

[34] = biological target: CDK5 (Inactive) (Homo sapiens, UniProt Q00535); conditions: read-out: Percentage of inhibition
Chain of CDK5 (Inactive) (Q00535 whole entry): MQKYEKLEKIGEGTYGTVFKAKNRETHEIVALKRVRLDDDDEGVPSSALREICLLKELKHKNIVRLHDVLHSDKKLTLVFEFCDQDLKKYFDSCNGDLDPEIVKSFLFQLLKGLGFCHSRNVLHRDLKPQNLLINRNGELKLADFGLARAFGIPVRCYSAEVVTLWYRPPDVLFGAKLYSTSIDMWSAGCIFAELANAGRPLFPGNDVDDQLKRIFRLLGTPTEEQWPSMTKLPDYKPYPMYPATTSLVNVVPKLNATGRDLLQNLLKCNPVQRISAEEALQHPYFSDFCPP
In short: as §1

[35] = biological target: T23, STK17A (DRAK1) (Homo sapiens, UniProt Q9UEE5); conditions: read-out: Percentage of inhibition
T23 construct: purchased Life Technologies
T23 sequence (Q9UEE5 whole entry): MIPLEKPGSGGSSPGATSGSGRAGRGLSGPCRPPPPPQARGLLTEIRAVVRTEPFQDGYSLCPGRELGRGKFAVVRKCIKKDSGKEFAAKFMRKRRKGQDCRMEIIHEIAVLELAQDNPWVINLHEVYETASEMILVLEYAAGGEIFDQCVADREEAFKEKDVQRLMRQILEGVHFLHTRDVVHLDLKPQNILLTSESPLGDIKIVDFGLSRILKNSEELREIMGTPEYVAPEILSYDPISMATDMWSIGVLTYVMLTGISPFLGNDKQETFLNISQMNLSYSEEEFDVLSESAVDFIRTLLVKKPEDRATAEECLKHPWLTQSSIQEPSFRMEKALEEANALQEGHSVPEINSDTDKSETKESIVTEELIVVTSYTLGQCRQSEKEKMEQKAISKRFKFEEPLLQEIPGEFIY
In short: as §1

[36] = biological target: T24, ANKK1 (Homo sapiens, UniProt Q8NFD2); conditions: read-out: Percentage of inhibition
T24 construct: purchased Life Technologies (SelectScreen service)
In short: as §1

[37] = biological target: T25, WEE1 (Homo sapiens, UniProt P30291); conditions: read-out: Percentage of inhibition
T25 construct: purchased Life Technologies (SelectScreen Whole Panel service)
In short: as §1

[38] = biological target: WNK2 (Homo sapiens, UniProt Q9Y3S1); conditions: read-out: Percentage of inhibition
In short: as §1

[39] = biological target: T26, ACVR1 (ALK2) (Homo sapiens, UniProt Q04771); conditions: read-out: Percentage of inhibition
T26 construct: purchased Life Technologies (SelectScreen Whole Panel service)
In short: as §1

[40] = biological target: T27, MAPK10 (JNK3) (Homo sapiens, UniProt P53779); conditions: read-out: Percentage of inhibition
T27 construct: purchased Life Technologies
In short: as §1

`COc1ccc2[nH]c3c(=O)[nH]c4ccc(O)cc4c3c2c1` [Compound 55, 2-Hydroxy-10-methoxy-5,7-dihydro-6H-indolo[2,3-c]quinolin-6-one] was tested, and the inhibition at 1 µM [1] was 67%, the inhibition at 1 µM [2] was 15% and the inhibition at 1 µM [3] was 21%. The inhibition at 1 µM [4] was 6%, the inhibition at 1 µM [5] was 24% and the inhibition at 1 µM [6] was 57%. For the same molecule, the inhibition at 1 µM [7] was 13%, the inhibition at 1 µM [8] was 34% and the inhibition at 1 µM [9] was 35%. It also gave an inhibition at 1 µM [10] of 50%, an inhibition at 1 µM [11] of 15% and a Percentage of inhibition [12] of 97%. It also gave an inhibition at 1 µM [13] of 20%, an inhibition at 1 µM [14] of 35% and an inhibition at 1 µM [15] of 33%. For the same molecule, the inhibition at 1 µM [16] was 28%, the inhibition at 1 µM [17] was 25% and the inhibition at 1 µM [18] was 73%. The inhibition at 1 µM [19] was 23%, the inhibition at 1 µM [20] was 15% and the inhibition at 1 µM [21] was 82%. It also gave an inhibition at 1 µM [22] of 83%, an inhibition at 1 µM [23] of 25% and an inhibition at 1 µM [24] of 6%. It also gave an inhibition at 1 µM [25] of 61%, an inhibition at 1 µM [26] of 19% and an inhibition at 1 µM [27] of 80%. For the same molecule, the inhibition at 1 µM [28] was 97%, the inhibition at 1 µM [29] was 54% and the inhibition at 1 µM [30] was 6%. For the same molecule, the inhibition at 1 µM [31] was 77%, the inhibition at 1 µM [32] was 32% and the inhibition at 1 µM [33] was 63%. For the same molecule, the inhibition at 1 µM [34] was 21%, the inhibition at 1 µM [35] was 95% and the inhibition at 1 µM [36] was 90%. For the same molecule, the inhibition at 1 µM [37] was 18%, the inhibition at 1 µM [38] was 14% and the inhibition at 1 µM [39] was 15%. The inhibition at 1 µM [40] was 29%.
